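Interpolation was linear, between the two tested concentrations surrounding the appropriate level; five concentrations were tested over 48 hours in 96-well plates. The concentration for 50% growth inhibition is given as GI50. TGI: concentration producing complete growth inhibition.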
Columns and labels:
Assay in all cases: growth of human tumour cells (NCI), 48 h
A498 renal = test system: A498 renal
HOP-62 NSCLC = test system: HOP-62 NSCLC
HS 578T breast = test system: HS 578T breast
KM12 colon = test system: KM12 colon
MCF7 breast = test system: MCF7 breast
NCI/ADR-RES ovarian = test system: NCI/ADR-RES ovarian
OVCAR-3 ovarian = test system: OVCAR-3 ovarian
OVCAR-5 ovarian = test system: OVCAR-5 ovarian
SF-295 CNS = test system: SF-295 CNS
T-47D breast = test system: T-47D breast

| SMILES | GI50 (A498 renal) | TGI (A498 renal) | GI50 (HOP-62 NSCLC) | TGI (HOP-62 NSCLC) | GI50 (HS 578T breast) | TGI (HS 578T breast) | GI50 (KM12 colon) | TGI (KM12 colon) | GI50 (MCF7 breast) | TGI (MCF7 breast) | GI50 (NCI/ADR-RES ovarian) | TGI (NCI/ADR-RES ovarian) | GI50 (OVCAR-3 ovarian) | TGI (OVCAR-3 ovarian) | GI50 (OVCAR-5 ovarian) | TGI (OVCAR-5 ovarian) | GI50 (SF-295 CNS) | TGI (SF-295 CNS) | GI50 (T-47D breast) | TGI (T-47D breast) |
| --- | --- | --- | --- | --- | --- | --- | --- | --- | --- | --- | --- | --- | --- | --- | --- | --- | --- | --- | --- | --- |
| C=C1CO[C@@H]2C[C@@H]1CCC1(C)OC1CC/C(C)=C/CC[C@@]2(C)O (stereo not given in full) | > 79.1 µM | > 100 µM | > 58.2 µM | > 100 µM | 27.1 µM | > 79.8 µM | 17.7 µM | 42 µM | 24.7 µM | > 60.6 µM | 32.3 µM | > 67.4 µM | 16.9 µM | 33 µM | > 100 µM | > 100 µM | 18.4 µM | 44.7 µM | 26.7 µM | > 69.2 µM |
| C=C1C(=O)O[C@H]2[C@H]1CC(=O)/C(C)=C\CC[C@@]1(C)O[C@@H]21 | 5.55 µg/mL | 11.3 µg/mL | 4.31 µg/mL | 8.45 µg/mL | 4.43 µg/mL | 9.16 µg/mL | 4.77 µg/mL | 8.79 µg/mL | 1.77 µg/mL | 10.1 µg/mL | 1.1 µg/mL | 4.45 µg/mL | 0.795 µg/mL | 3.71 µg/mL | 4.16 µg/mL | 8.24 µg/mL | 5.55 µg/mL | 12.4 µg/mL | 2.57 µg/mL | 9.53 µg/mL |
| CCOC(=O)c1cnc2c(cnn2CC)c1NN=C(C)C | 28.1 µM | > 100 µM | 65.9 µM | > 100 µM | 24.1 µM | 87.9 µM | 67.1 µM | > 100 µM | 90.4 µM | > 100 µM | 38 µM | > 100 µM | 39.5 µM | > 100 µM | 26.6 µM | > 100 µM | 27.6 µM | > 100 µM | 29 µM | > 100 µM |
| C=C1C(=O)O[C@H]2[C@H]1CC/C(COC(=O)C(=O)c1cn(C)c3ccc(OC)cc13)=C\CC[C@@]1(C)O[C@@H]21 | 6.77 µM | 10.1 µM | 6.46 µM | 11.9 µM | 11.3 µM | 50.4 µM | 6.41 µM | 13.3 µM | 2.8 µM | 16.4 µM | 4.97 µM | 25.8 µM | 1.86 µM | 3.42 µM | 6.12 µM | 13.6 µM | 9.35 µM | 21.8 µM | 5.98 µM | 11.1 µM |
| Cc1nc2ccc(NCCN(C)C)c3c(=O)c4cc(O)ccc4n1c23 | – | 4.93 µM | – | 11.1 µM | – | 2.77 µM | – | 4.09 µM | – | 11.5 µM | – | 7.29 µM | – | 9.94 µM | – | 6.05 µM | – | 5.87 µM | – | 14.8 µM |
| O=C1C=C(Nc2nc(C(=O)O)cc(=O)[nH]2)c2ccccc2C1=O | – | > 100 µM | – | > 100 µM | – | > 100 µM | – | > 100 µM | – | > 100 µM | – | > 100 µM | – | > 100 µM | – | > 100 µM | – | > 100 µM | – | > 100 µM |
| CCCCC#Cc1cccc(=O)o1 | 9.83 µM | 66.1 µM | > 100 µM | > 100 µM | > 100 µM | > 100 µM | 37.1 µM | > 100 µM | 8.9 µM | > 100 µM | 9.46 µM | > 100 µM | 5.23 µM | > 100 µM | > 100 µM | > 100 µM | > 100 µM | > 100 µM | 29.2 µM | > 100 µM |
